Values after ≈ are worked out from the molar mass of the structure shown.
Test system: E. coli ATCC 25922
Type: cell-based
Settings: ATCC 25922, 24 h
Procedure: The minimal inhibitory concentration (MIC) for the peptoids was determined in sterile microtiter plates in a final volume of 200 μl using Trypticase Soy Broth (TSB; Difco Laboratories, Detroit, Mich.) as the growth medium. Serial two-fold dilutions of the peptoid stock were made in the plate wells such that concentrations ranged from 512 to 2 μg/ml in a volume of 100 μL. Each well was then inoculated with 100 μl of a dilute suspension of bacteria in TSB yielding a final concentration of 1×10^4 bacteria/ml. The final peptoid concentrations ranged from 256 μg/ml to […]. The assay plates were incubated at 37° C. for 24 hours inside a Bioscreen C microtitre plate reader (Thermo Labsystems; Vantaa, Finland). Optical Density (OD) of the medium at 600 nm was recorded every 20 minutes to monitor cell growth. The lowest concentration of peptoid preventing bacterial growth during the 24 hr period was defined as the MIC.
Table 1. Antibacterial activity of peptoids against E. coli ATCC 25922. The general structure for each of the Compounds 20 to 41 is represented by Formula V: […]

| MIC | SMILES |
| --- | --- |
| 512 µg/mL (≈ 337 µM) | CC(=O)N(CCC(=O)N(CCC(=O)N(CCCN(C)C)CCC(=O)N(CCC(=O)N(CCC(=O)N(CCCN(C)C)CCC(=O)N(CCC(=O)N(CCC(=O)N(CCCN(C)C)CCC(=O)NC(CCCCN)C(N)=O)CC(C)C)Cc1ccccc1)CC(C)C)Cc1ccccc1)CC(C)C)Cc1ccccc1 (centres unmarked) [Compound 23, Ac(Bz-Ibu-DMAP)3-Lys-NH2] |
| 128 µg/mL (≈ 65.1 µM) | CC(=O)N(CCC(=O)N(CCC(=O)N(CCCN(C)C)CCC(=O)N(CCC(=O)N(CCC(=O)N(CCCN(C)C)CCC(=O)N(CCC(=O)N(CCC(=O)N(CCCN(C)C)CCC(=O)N(CCC(=O)N(CCC(=O)N(CCCN(C)C)CCC(=O)NC(CCCCN)C(N)=O)CC(C)C)Cc1ccccc1)CC(C)C)Cc1ccccc1)CC(C)C)Cc1ccccc1)CC(C)C)Cc1ccccc1 (centres unmarked) [Compound 24, Ac(Bz-Ibu-DMAP)4-Lys-NH2] |
| 128 µg/mL (≈ 78.3 µM) | CC(=O)N(CCC(=O)N(CCN)CCC(=O)N(CCC(=O)N(CCN)CCC(=O)N(CCC(=O)N(CCN)CCC(=O)N(CCC(=O)N(CCN)CCC(=O)N(CCC(=O)N(CCN)CCC(=O)N(CCC(=O)N(CCN)CCC(=O)NC(CCCCN)C(N)=O)CC(C)C)CC(C)C)CC(C)C)CC(C)C)CC(C)C)CC(C)C (centres unmarked) [Compound 26, Ac(Ibu-Aminoethyl)6-Lys-NH2] |
| >512 µg/mL | CC(=O)N(CCC(=O)N(CCCN(C)C)CCC(=O)N(CCC(=O)N(CCCN(C)C)CCC(=O)N(CCC(=O)N(CCCN(C)C)CCC(=O)N(CCC(=O)N(CCCN(C)C)CCC(=O)N(CCC(=O)N(CCCN(C)C)CCC(=O)N(CCC(=O)N(CCCN(C)C)CCC(=O)N(CCC(=O)N(CCCN(C)C)CCC(=O)N(CCC(=O)N(CCCN(C)C)CCC(=O)NC(CCCCN)C(N)=O)CC(C)C)CC(C)C)CC(C)C)CC(C)C)CC(C)C)CC(C)C)CC(C)C)CC(C)C (centres unmarked) [Compound 29, Ac(Ibu-DMAP)8-Lys-NH2] |
| 256 µg/mL (≈ 121 µM) | CC(=O)N(CCC(=O)N(CCN)CCC(=O)N(CCC(=O)N(CCN)CCC(=O)N(CCC(=O)N(CCN)CCC(=O)N(CCC(=O)N(CCN)CCC(=O)N(CCC(=O)N(CCN)CCC(=O)N(CCC(=O)N(CCN)CCC(=O)N(CCC(=O)N(CCN)CCC(=O)N(CCC(=O)N(CCN)CCC(=O)NC(CCCCN)C(N)=O)CC(C)C)CC(C)C)CC(C)C)CC(C)C)CC(C)C)CC(C)C)CC(C)C)CC(C)C (centres unmarked) [Compound 32, Ac(Ibu-Aminoethyl)8-Lys-NH2] |
| >512 µg/mL | CC(=O)N(CCC(=O)N(CCC(=O)N(CCN)CCC(=O)N(CCC(=O)N(CCC(=O)N(CCN)CCC(=O)N(CCC(=O)N(CCC(=O)N(CCN)CCC(=O)NC(CCCCN)C(N)=O)CC(C)C)CC(C)C)CC(C)C)CC(C)C)CC(C)C)CC(C)C (stereo not drawn) [Compound 33, Ac(Ibu-Ibu-Aminoethyl)3-Lys-NH2] |
| 256 µg/mL (≈ 154 µM) | CC(=O)N(CCC(=O)N(CCC(=O)N(CCN)CCC(=O)N(CCC(=O)N(CCC(=O)N(CCN)CCC(=O)N(CCC(=O)N(CCC(=O)N(CCN)CCC(=O)N(CCC(=O)N(CCC(=O)N(CCN)CCC(=O)NC(CCCCN)C(N)=O)CC(C)C)CC(C)C)CC(C)C)CC(C)C)CC(C)C)CC(C)C)CC(C)C)CC(C)C (stereo not drawn) [Compound 34, Ac(Ibu-Ibu-Aminoethyl)4-Lys-NH2] |
| 256 µg/mL (≈ 126 µM) | CC(=O)N(CCC(=O)N(CCC(=O)N(CCN)CCC(=O)N(CCC(=O)N(CCC(=O)N(CCN)CCC(=O)N(CCC(=O)N(CCC(=O)N(CCN)CCC(=O)N(CCC(=O)N(CCC(=O)N(CCN)CCC(=O)N(CCC(=O)N(CCC(=O)N(CCN)CCC(=O)NC(CCCCN)C(N)=O)CC(C)C)CC(C)C)CC(C)C)CC(C)C)CC(C)C)CC(C)C)CC(C)C)CC(C)C)CC(C)C)CC(C)C (stereo not drawn) [Compound 36, Ac(Ibu-Ibu-Aminoethyl)5-Lys-NH2] |
| >512 µg/mL | CC(=O)N(CCC(=O)N(CCC(=O)N(CCCCN)CCC(=O)N(CCC(=O)N(CCC(=O)N(CCCCN)CCC(=O)NC(CCCCN)C(N)=O)CC(C)C)CC(C)C)CC(C)C)CC(C)C (stereo not drawn) [Compound 37, Ac(Ibu-Ibu-Aminobutyl)2-Lys-NH2] |
| >512 µg/mL | CC(=O)N(CCC(=O)N(CCC(=O)N(CCCCN)CCC(=O)N(CCC(=O)N(CCC(=O)N(CCCCN)CCC(=O)N(CCC(=O)N(CCC(=O)N(CCCCN)CCC(=O)NC(CCCCN)C(N)=O)CC(C)C)CC(C)C)CC(C)C)CC(C)C)CC(C)C)CC(C)C (stereo not drawn) [Compound 38, Ac(Ibu-Ibu-Aminobutyl)3-Lys-NH2] |

Continued, compound first:

| SMILES | MIC |
| --- | --- |
| CC(=O)N(CCC(=O)N(CCCN(C)C)CCC(=O)N(CCC(=O)N(CCC(=O)N(CCCN(C)C)CCC(=O)N(CCC(=O)N(CCC(=O)N(CCCN(C)C)CCC(=O)N(CCC(=O)NC(CCCCN)C(N)=O)CC(C)C)Cc1ccccc1)CC(C)C)Cc1ccccc1)CC(C)C)Cc1ccccc1 (centres unmarked) [Compound 20, Ac(Bz-DMAP-Ibu)3-Lys-NH2] | 128 µg/mL (≈ 84.1 µM) |
| CC(=O)N(CCC(=O)N(CCCN(C)C)CCC(=O)N(CCC(=O)N(CCC(=O)N(CCCN(C)C)CCC(=O)N(CCC(=O)N(CCC(=O)N(CCCN(C)C)CCC(=O)N(CCC(=O)N(CCC(=O)N(CCCN(C)C)CCC(=O)N(CCC(=O)N(CCC(=O)N(CCCN(C)C)CCC(=O)N(CCC(=O)NC(CCCCN)C(N)=O)CC(C)C)Cc1ccccc1)CC(C)C)Cc1ccccc1)CC(C)C)Cc1ccccc1)CC(C)C)Cc1ccccc1)CC(C)C)Cc1ccccc1 (centres unmarked) [Compound 21, Ac(Bz-DMAP-Ibu)5-Lys-NH2] | 128 µg/mL (≈ 53.1 µM) |
| CC(=O)N(CCC(=O)N(CCCN(C)C)CCC(=O)N(CCC(=O)N(CCC(=O)N(CCCN(C)C)CCC(=O)N(CCC(=O)N(CCC(=O)N(CCCN(C)C)CCC(=O)N(CCC(=O)N(CCC(=O)N(CCCN(C)C)CCC(=O)N(CCC(=O)N(CCC(=O)N(CCCN(C)C)CCC(=O)N(CCC(=O)N(CCC(=O)N(CCCN(C)C)CCC(=O)N(CCC(=O)NC(CCCCN)C(N)=O)CC(C)C)Cc1ccccc1)CC(C)C)Cc1ccccc1)CC(C)C)Cc1ccccc1)CC(C)C)Cc1ccccc1)CC(C)C)Cc1ccccc1)CC(C)C)Cc1ccccc1 (centres unmarked) [Compound 22, Ac(Bz-DMAP-Ibu)6-Lys-NH2] | 128 µg/mL (≈ 44.8 µM) |
| CC(=O)N(CCC(=O)N(CCC(=O)N(CCCN(C)C)CCC(=O)N(CCC(=O)N(CCC(=O)N(CCCN(C)C)CCC(=O)N(CCC(=O)N(CCC(=O)N(CCCN(C)C)CCC(=O)N(CCC(=O)N(CCC(=O)N(CCCN(C)C)CCC(=O)N(CCC(=O)N(CCC(=O)N(CCCN(C)C)CCC(=O)NC(CCCCN)C(N)=O)CC(C)C)Cc1ccccc1)CC(C)C)Cc1ccccc1)CC(C)C)Cc1ccccc1)CC(C)C)Cc1ccccc1)CC(C)C)Cc1ccccc1 (centres unmarked) [Compound 25, Ac(Bz-Ibu-DMAP)5-Lys-NH2] | 128 µg/mL (≈ 53.1 µM) |
| CC(=O)N(CCC(=O)N(CCCN(C)C)CCC(=O)N(CCC(=O)N(CCCN(C)C)CCC(=O)N(CCC(=O)N(CCCN(C)C)CCC(=O)N(CCC(=O)N(CCCN(C)C)CCC(=O)N(CCC(=O)N(CCCN(C)C)CCC(=O)NC(CCCCN)C(N)=O)CC(C)C)CC(C)C)CC(C)C)CC(C)C)CC(C)C (centres unmarked) [Compound 27, Ac(Ibu-DMAP)5-Lys-NH2] | >512 µg/mL |
| CC(=O)N(CCC(=O)N(CCN)CCC(=O)N(CCC(=O)N(CCN)CCC(=O)N(CCC(=O)N(CCN)CCC(=O)N(CCC(=O)N(CCN)CCC(=O)N(CCC(=O)N(CCN)CCC(=O)NC(CCCCN)C(N)=O)CC(C)C)CC(C)C)CC(C)C)CC(C)C)CC(C)C (centres unmarked) [Compound 30, Ac(Ibu-Aminoethyl)5-Lys-NH2] | >256 µg/mL |
| CC(=O)N(CCC(=O)N(CCCCN)CCC(=O)N(CCC(=O)N(CCCCN)CCC(=O)N(CCC(=O)N(CCCCN)CCC(=O)NC(CCCCN)C(N)=O)CC(C)C)CC(C)C)CC(C)C (centres unmarked) [Compound 41, Ac(Ibu-Aminobutyl)3-Lys-NH2] | 512 µg/mL (≈ 514 µM) |
